According to ChEMBL document CHEMBL5120915, “Synthesis of Sulfur-Containing Analogues of Hedychenone, a Labdane Diterpenoid from Hedychium spicatum” (J Nat Prod, 2022):
In brackets after ≈: the same amount, converted by molar mass.

Assays:
[1] = Inhibition of Saccharomyces cerevisiae alpha-glucosidase using pNPG as substrate preincubated for 5 mins followed by pNPG addition and measured after 10 mins by microplate reader method
Staphylococcus aureus = test: Antibacterial activity against Staphylococcus aureus MTCC 96 assessed as zone of inhibition preincubated for 2 to 3 hrs followed by 12 to 24 hrs incubation at aerobic condition by well diffusion method; type: functional; settings: time 14-27 hrs

IC50 [1]	SMILES	inhibition zone (IZ) (Staphylococcus aureus)
9.7 µg/mL (≈ 21.4 µM)	CSc1ccc(Sc2occc2/C=C/[C@H]2C(C)=CC(=O)[C@H]3C(C)(C)CCC[C@]23C)cc1	–
9.7 µg/mL (≈ 21.3 µM)	CC1=CC(=O)[C@H]2C(C)(C)CCC[C@]2(C)[C@H]1/C=C/c1ccoc1SCc1ccc(Cl)cc1	–
9.7 µg/mL (≈ 23.1 µM)	CC1=CC(=O)[C@H]2C(C)(C)CCC[C@]2(C)[C@H]1/C=C/c1ccoc1Sc1ccccc1C	–
9.7 µg/mL (≈ 22.8 µM)	CC1=CC(=O)[C@H]2C(C)(C)CCC[C@]2(C)[C@H]1/C=C/c1ccoc1Sc1ccc(F)cc1	–
9.7 µg/mL (≈ 22 µM)	CC1=CC(=O)[C@H]2C(C)(C)CCC[C@]2(C)[C@H]1/C=C/c1ccoc1Sc1ccc(Cl)cc1	–
12.15 µg/mL (≈ 28.6 µM)	CC1=CC(=O)[C@H]2C(C)(C)CCC[C@]2(C)[C@H]1/C=C/c1ccoc1Sc1ccccc1F	–
9.7 µg/mL (≈ 22 µM)	CC1=CC(=O)[C@H]2C(C)(C)CCC[C@]2(C)[C@H]1/C=C/c1ccoc1Sc1cccc(Cl)c1	6 mm
11.82 µg/mL (≈ 27.1 µM)	COc1ccccc1Sc1occc1/C=C/[C@H]1C(C)=CC(=O)[C@H]2C(C)(C)CCC[C@]12C	–
9.7 µg/mL (≈ 22.8 µM)	CC1=CC(=O)[C@H]2C(C)(C)CCC[C@]2(C)[C@H]1/C=C/c1ccoc1Sc1cccc(F)c1	–
13.01 µg/mL (≈ 26.8 µM)	CC1=CC(=O)[C@H]2C(C)(C)CCC[C@]2(C)[C@H]1/C=C/c1ccoc1Sc1ccccc1Br	–
9.7 µg/mL (≈ 23.1 µM)	CC1=CC(=O)[C@H]2C(C)(C)CCC[C@]2(C)[C@H]1/C=C/c1ccoc1Sc1cccc(C)c1	–
9.7 µg/mL (≈ 20 µM)	CC1=CC(=O)[C@H]2C(C)(C)CCC[C@]2(C)[C@H]1/C=C/c1ccoc1Sc1ccc(Br)cc1	–
12.23 µg/mL (≈ 25.2 µM)	CC1=CC(=O)[C@H]2C(C)(C)CCC[C@]2(C)[C@H]1/C=C/c1ccoc1Sc1cccc(Br)c1	–
9.7 µg/mL (≈ 21.2 µM)	CC1=CC(=O)[C@H]2C(C)(C)CCC[C@]2(C)[C@H]1/C=C/c1ccoc1Sc1ccc2ccccc2c1	–
13.17 µg/mL (≈ 32.4 µM)	CC1=CC(=O)[C@H]2C(C)(C)CCC[C@]2(C)[C@H]1/C=C/c1ccoc1Sc1ccccc1	–
9.7 µg/mL (≈ 20.4 µM)	CC1=CC(=O)[C@H]2C(C)(C)CCC[C@]2(C)[C@H]1/C=C/c1ccoc1Sc1ccc(Cl)cc1Cl	–
9.7 µg/mL (≈ 22 µM)	CC1=CC(=O)[C@H]2C(C)(C)CCC[C@]2(C)[C@H]1/C=C/c1ccoc1Sc1ccccc1Cl	–
9.7 µg/mL (≈ 22.1 µM)	CC1=CC(=O)[C@H]2C(C)(C)CCC[C@]2(C)[C@H]1/C=C/c1ccoc1SCc1ccc(F)cc1	–
13.34 µg/mL (≈ 31.7 µM)	CC1=CC(=O)[C@H]2C(C)(C)CCC[C@]2(C)[C@H]1/C=C/c1ccoc1SCc1ccccc1	–
3.95 µg/mL (≈ 6.12 µM)	C[C@H]1O[C@H](O[C@H]2[C@H](O)[C@@H](O)[C@@H](O[C@H]3[C@H](O)[C@@H](O)C(O)O[C@@H]3CO)O[C@@H]2CO)[C@H](O)[C@@H](O)[C@@H]1N[C@H]1C=C(CO)[C@@H](O)[C@H](O)[C@H]1O (stereo partly specified) [ACARBOSE]	–
